Test results published in ChEMBL document CHEMBL1201862, “PubChem BioAssay data set” (2004).
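Exposure lasted 48 hours, with cells grown in 96-well plates and compounds tested at five concentrations. Abbreviation: GI50, concentration required for 50% inhibition of growth.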 Calls of active or inactive are those of the source. Cut-off read from the data, not from the text of the source: active = GI50 up to about 1.1 µM and inactive = higher.

Key:
Assay in all cases: growth of human tumour cells (NCI), 48 h
RXF 393 = system: RXF 393
NCI-H522 = system: NCI-H522
SK-MEL-5 = system: SK-MEL-5
MDA-N = system: MDA-N
OVCAR-3 = system: OVCAR-3
HCT-15 = system: HCT-15
HOP-92 = system: HOP-92
SF-295 = system: SF-295
HT-29 = system: HT-29
TK-10 = system: TK-10
BT-549 = system: BT-549
786-0 = system: 786-0
U-251 = system: U-251
T47D = system: T47D
OVCAR-5 = system: OVCAR-5
OVCAR-4 = system: OVCAR-4
MDA-MB-231 = system: MDA-MB-231
A549 = system: A549
RPMI-8226 = system: RPMI-8226
SK-MEL-28 = system: SK-MEL-28
MCF7 = system: MCF7
SF-539 = system: SF-539
HL-60 = system: HL-60
HOP-62 = system: HOP-62
A498 = system: A498
HCT-116 = system: HCT-116
SF-268 = system: SF-268
CAKI-1 = system: CAKI-1
LOX IMVI = system: LOX IMVI
DU-145 = system: DU-145
CCRF-CEM = system: CCRF-CEM
HCC 2998 = system: HCC 2998
KM12 = system: KM12
NCI-H23 = system: NCI-H23
COLO 205 = system: COLO 205
SK-OV-3 = system: SK-OV-3
Hs-578T = system: Hs-578T
IGROV-1 = system: IGROV-1
EKVX = system: EKVX
NCI-H460 = system: NCI-H460
SW-620 = system: SW-620
SK-MEL-2 = system: SK-MEL-2
SN12C = system: SN12C
K562 = system: K562
ACHN = system: ACHN
MOLT-4 = system: MOLT-4
UACC-257 = system: UACC-257
UACC-62 = system: UACC-62
M14 = system: M14
SNB-19 = system: SNB-19
NCI-H226 = system: NCI-H226
MDA-MB-435 = system: MDA-MB-435
UO-31 = system: UO-31
Malme-3M = system: Malme-3M
SR = system: SR

Compound: Fc1ccc(/N=N/N2CCCC2)cc1
- GI50 (RXF 393): > 100 µM (inactive)
- GI50 (NCI-H522): > 100 µM (inactive)
- GI50 (SK-MEL-5): 33.9 µM (inactive)
- GI50 (MDA-N): 32.4 µM (inactive)
- GI50 (OVCAR-3): > 100 µM (inactive)
- GI50 (HCT-15): 25.2 µM
- GI50 (HOP-92): > 100 µM (inactive)
- GI50 (SF-295): 8.04 µM (inactive)
- GI50 (HT-29): > 100 µM (inactive)
- GI50 (TK-10): 62.4 µM (inactive)
- GI50 (BT-549): 41.8 µM (inactive)
- GI50 (786-0): > 100 µM (inactive)
- GI50 (U-251): > 100 µM (inactive)
- GI50 (T47D): 19.2 µM (inactive)
- GI50 (OVCAR-5): > 100 µM (inactive)
- GI50 (OVCAR-4): > 100 µM (inactive)
- GI50 (MDA-MB-231): > 100 µM (inactive)
- GI50 (A549): > 100 µM (inactive)
- GI50 (RPMI-8226): 22.3 µM (inactive)
- GI50 (SK-MEL-28): 94 µM (inactive)
- GI50 (MCF7): 77.8 µM (inactive)
- GI50 (SF-539): > 100 µM (inactive)
- GI50 (HL-60): 50.4 µM (inactive)
- GI50 (HOP-62): > 100 µM (inactive)
- GI50 (A498): > 100 µM (inactive)
- GI50 (HCT-116): 85.7 µM (inactive)
- GI50 (SF-268): > 100 µM (inactive)
- GI50 (CAKI-1): > 100 µM (inactive)
- GI50 (LOX IMVI): 4.94 µM (inactive)
- GI50 (DU-145): 52.5 µM (inactive)
- GI50 (CCRF-CEM): 52.2 µM (inactive)
- GI50 (HCC 2998): 15.5 µM (inactive)
- GI50 (KM12): 92.3 µM (inactive)
- GI50 (NCI-H23): > 100 µM (inactive)
- GI50 (COLO 205): > 100 µM (inactive)
- GI50 (SK-OV-3): > 100 µM (inactive)
- GI50 (Hs-578T): > 100 µM (inactive)
- GI50 (IGROV-1): 82.4 µM (inactive)
- GI50 (EKVX): > 100 µM (inactive)
- GI50 (NCI-H460): 15.7 µM (inactive)
- GI50 (SW-620): > 100 µM (inactive)
- GI50 (SK-MEL-2): > 100 µM (inactive)
- GI50 (SN12C): 51.1 µM (inactive)
- GI50 (K562): 4.66 µM (inactive)
- GI50 (ACHN): 68.4 µM (inactive)
- GI50 (MOLT-4): 32.1 µM (inactive)
- GI50 (UACC-257): 57.4 µM (inactive)
- GI50 (UACC-62): 7.08 µM (inactive)
- GI50 (M14): > 100 µM (inactive)
- GI50 (SNB-19): > 100 µM (inactive)
- GI50 (NCI-H226): > 100 µM (inactive)
- GI50 (MDA-MB-435): 37.2 µM (inactive)
- GI50 (UO-31): 27 µM (inactive)
- GI50 (Malme-3M): > 100 µM (inactive)
- GI50 (SR): 28.4 µM (inactive)
